Assay results from patent US8586533B2, “Treatment of early-stage osteoarthritis” (Kaohsiung Medical University, priority 2008, dated 2013).

Experiments:
[1] = tested on: human articular chondrocytes; assay: Dimethylmethylene blue (DMMB) assay of GAG levels in chondrocyte cultures; format: cell-based; conditions: for GAG levels versus control group: 10 nM
Experimental: Chondrocyte cultures were divided into 4 groups.
Alginate beads were dissolved as described above and further digested by papain (300 μg/ml) at 60° C. for 18 hours. The levels of DNA and sulfated glycosaminoglycan (GAG) in the samples were quantified using Hoechst 33258 dye and 1,9-dimethylmethylene blue dye, respectively. A standard curve for the DMMB assay was generated using aqueous chondroitin sulfate C solution (Sigma-Aldrich, St. Louis, Mo.) at concentrations ranging from […].

[2] = tested on: rat articular cartilage; assay: Papain-induced OA rat model, type II and type X collagen immunohistochemistry; format: in vivo, Sprague-Dawley rats; conditions: OA plus PTH group, 10 nM intraarticular
Experimental: Fifty-four 12-week-old male Sprague-Dawley rats (250-300 gm) were purchased from BioLASCO Taiwan and housed under standard laboratory conditions (temperature 24° C., 12-hour light-dark cycle) with food and water ad libitum. The animals were acclimatized to the laboratory environment for 1 week before the experiments.
Rats were divided into the following 3 groups: OA (OA induction without PTH [1-34] treatment) (n=18), OA plus PTH (PTH [1-34] treatment followed by OA induction) (n=18), and PTH (PTH [1-34] treatment without OA induction) (n=18). Each left knee, which served as the contralateral control joint, was injected with vehicle without PTH treatment or OA induction. The right knees were the study joints. OA was induced in the right knees of rats in the OA and OA plus PTH groups with intraarticular injections of 20 μl of 4% papain solution and 20 μl of 0.03M cysteine. The injections were given with a 26-gauge needle via the patellar tendon on days 1, 4, and 7 of the experiment (see e.g., Nucl Med Commun (1996) 17(6): 529-35). In the OA plus PTH group, after OA induction, the right knees were injected intraarticularly with 40 μl of 10 nM PTH (1-34) every 3 days until rats were killed. In the PTH group, the same PTH (1-34) treatment was performed but without OA induction. Six rats from each group were killed by CO2 inhalation at the same time points as rats in the OA plus PTH group, in which PTH (1-34) treatment was given for 1, 3, and 5 weeks.
After rats were killed, the knees were harvested, and the tibia plateaus with articular cartilage were collected and fixed with 10% neutral buffered formalin prior to histologic preparation. The samples were then decalcified in 10% formic acid/PBS. The decalcified tibia articular samples were paraffin embedded, and 5-μm microsections in the coronary plane were prepared. GAG was stained with Safranin O-fast green (1% Safranin O counterstained with 0.75% hematoxylin and then 1% fast green) (Sigma, St. Louis Mo.). Localized type II collagen and type X collagen were immunostained. Apoptotic cells in cartilage were TUNEL stained.
The tibia articular sections were rehydrated, and the endogenous peroxidase in tissue was blocked with 3% hydrogen peroxide. Samples were digested by enzymes for epitope retrieval before incubation with primary antibodies (see e.g. J Histochem Cytochem (2002) 50(8): 1049-58). The optimal condition for enzyme digestion for type II collagen immunostaining was a mixture of 2.5% hyaluronidase and 1 mg/ml of Pronase in PBS (pH 7.4; Sigma) at 37° C. for 1 hour. […] The relative density of immunostaining (density/area; mean±SEM area 25.44±2.77 mm^2) was measured using Image-Pro Plus software, version 5.0 (Media Cybernetics).

[3] = tested on: human articular chondrocytes; assay: Quantitative real-time PCR of mRNA levels in azaC-induced terminal differentiation culture model; format: cell-based
Experimental: Chondrocyte cultures were divided into 4 groups. […] Louis, Mo.) for 48 hours.

## PTH (1-34): 34-amino acid long peptide made up of amino-terminal amino acids 1 through 34 of human parathyroid hormone
[1]; PTH group (no azaC)
  GAG levels versus control group: not significantly different
[1]; azaC plus PTH group, 10 nM, 3, 7, and 10 days, P<0.01
  GAG levels versus azaC group: significantly higher
[1]; azaC plus PTH group, after 7 and 10 days, P<0.01
  GAG levels versus control group: higher
[2]; 3 and 5 weeks
  Immunolocalized type X collagen in cartilage compared with OA group: less evident
[2]; 3 weeks
  density of immunolocalized type II collagen versus contralateral control cartilage: not different
[2]; 3 weeks, P<0.05
  density of immunolocalized type II collagen versus OA group: significantly higher
[2]; 5 weeks
  density of immunolocalized type II collagen versus OA group (P<0.01) and contralateral control (P<0.05): significantly higher
[3]; 10 nM, 10 days of treatment
  Col2a1 expression among azaC plus PTH, azaC and control groups: no significant difference
[3]; PTH group (no azaC), 10 nM, 3-10 days of treatment
  Expression of aggrecan, Col2a1, Col10a1, ALP, and IHH genes versus control group: not significantly different
[3]; PTH group (no azaC), 10 nM, 3-10 days of treatment, not statistically significant
  Bcl-2 expression: 1.7 times that in control
[3]; azaC plus PTH cultures, 10 nM, 3, 7 and 10 days of treatment
  azaC-induced changes in levels of mRNA for Col10a1, ALP, and IHH: significantly eliminated
[3]; azaC plus PTH cultures, 10 nM, day 3 of treatment, P<0.01
  Expression of Col10a1 and ALP versus control cultures: lower
[3]; azaC plus PTH cultures, 10 nM, day 10 of treatment, P<0.05
  Expression of ALP versus control cultures: higher
[3]; azaC plus PTH group, 10 nM, 3-10 days of treatment
  IHH mRNA level, lower than control cultures: 47-71%
[3]; azaC plus PTH group, 10 nM, 3 and 7 days of treatment (P<0.05, P<0.01)
  aggrecan mRNA level versus azaC group: significantly higher
[3]; azaC plus PTH group, 10 nM, 3 days of treatment, P<0.05
  Col2a1 expression versus azaC group: significantly higher
[3]; azaC plus PTH group, 10 nM, 7 days of treatment
  Col2a1 expression versus azaC (P<0.01) or control (P<0.05) group: higher
[3]; azaC plus PTH group, 10 nM, 10 days of treatment
  aggrecan mRNA level versus azaC group: not different
[3]; azaC plus PTH group, 10 nM, 14 days
  Bax expression: 1.6 times that in the control cultures
[3]; azaC plus PTH group, 10 nM, after 3 days (P<0.05) and 10 days (P<0.01)
  ratio of Bcl-2 to Bax versus control group: higher
[3]; azaC plus PTH group, 10 nM, after 3 days of treatment, P<0.05
  Bcl-2 expression: 2.1 times that of control
[3]; azaC plus PTH group, 10 nM, after 7 days of treatment, P<0.05
  Bcl-2 expression: 2.1 times control
[3]; azaC plus PTH group, 10 nM, after 10 days of treatment, P<0.01
  Bcl-2 expression: 6.0 times control
